Source: patent EP0930296A1, “FLUORINATED PROSTAGLANDIN DERIVATIVES AND MEDICINES” (ASAHI GLASS COMPANY LTD., priority 1996, dated 1998)

Columns and labels:
[1] = test system: smooth muscle in the respiratory system; settings: Izv. Akad. Nauk SSSR, Ser. Biol., 6, 831 (1989); cited from earlier work
[2] = test system: smooth muscle in the digestive and circulatory systems; settings: Izv. Akad. Nauk SSSR, Ser. Biol., 6, 831 (1989); cited from earlier work
[3] = test system: crab-eating macaques; assay: Effects on intraocular pressure (air-puff applanation tonometer, ketamine anesthesia); type: in vivo; settings: for Change in ocular pressure after application: average of 8 subjects, relative to initial intraocular pressure
Method: The effect of a compound of the present invention on intraocular pressure was studied in accordance with the method disclosed in a report of a study on the effect of the tromethamine salt and the isopropyl ester of PGF2α on intraocular pressure in crab-eating macaques (Exp. Eye Res., 61, 677-683 (1995)).
Male crab-eating macaques weighing from 5 to 7.5 kg (5-10 years old) were used in the test. The intraocular pressures were measured just before and 2, 4 and 6 hours after application of the test compound under ketamine anesthasia (5-10 mg/kg, intramuscular administration) by means of an air-puff applanation tonometer.
The results of application of 0.1% (w/v) ophthalmic solution containing Latanoprost (reference pharmaceutical 1), which is known as a therapeutic agent for glaucoma are also shown in Table 1.

[4] = test system: Japanese white rabbits; assay: Test on eye irritations: conditions of the front of the eye, scores by improved Draize method; type: in vivo; settings: for scored in total, as much as Latanoprost did: ratio of total scores, Table 2 to Table 3; for Condition of nictitating membrane / Edema of eyelid conjunctiva / Iridial congestion / Opacity of the cornea / Opaque fraction of the cornea / Rubor of eyelid conjunctiva / Rubor of supraocular conjunctiva / Secretions / Total score: ten times at 30 minute intervals; for Total score: sum of the scores
Method: The eye irritation caused by a compound of the present invention was investigated in accordance with the method of Fukui et al. ("[…]-no-rinsho", 4277-89 (1970)). Male Japanese white rabbits weighing about 2.5 kg were used in the test. A test compound was applied into the conjunctival sac of a right eye ten times at 30 minute intervals. The conditions of the front and the anterior chamber of the eye were observed just before and 1, 2 and 4 hours after the final application, and the damage to the cornea was observed 4 hours after the final application. Into the conjunctival sac of a left eye, the base only, which was free from the test compound, was applied. A) Conditions of the front of the eye: Scores were determined on the basis of the following scale of damage to the eye according to the improved Draize method. • a) Opacity • No cloud (normal); 0 • Scattered clouds in pervasive regions (the details of the iris are clearly visible); 1 • Easily distinguishable translucent regions (details of the iris are not visible so clearly); 2 • Opaque regions, details of the iris are invisible, and the size of the pupil is barely recognizable; 3 • Unclear, the iris is invisible; 4 • b) The size of the region of the cornea falling into the above • None; 0 • More than 0 and not more than 1/4; 1 • More than 1/4 and less than 1/2; 2 • More than 1/2 and less than 3/4; 3 • More than 3/4 and all over; 4 • Normal; 0 • More […], stasis, swelling, congestion around the cornea than normal (any or combinations of them), the iris is still responsive to light (positive for slow reaction); 1 • Irresponsible to light, and bleeding and apparent destruction (any or all of them); 2 • a) Rubor of the eyelid conjunctiva • No congestion; 0 • Slightly reddish mucosae and slight but recognizable vasodilation of the edge of the eyelid; 0.5 • Clearly abnormal congestion, appreciably red mucosae and remarkable swelling; 1 • Pretty remarkably red ocular mucosae and slightly unclear peripheral vessels; 2 • More intense conditions than 2 and pervasive beef-like rubor; 3 • b) Edema of the eyelid conjunctiva • Not swollen; 0 • Slight tendency of edema; 0.5 • More swollen than normal; 1 • Apparently swollen together with part of the integument of the eyelid; 2 • Swollen with about half of the eyelid sagging; 3 • Swollen with about half to all of the eyelid sagging; 4 • c) Rubor of the supraocular conjunctiva • No congestion; 0 • Slight vasodilation around the cornea; 0.5 • More remarkable vasodilation; 1 • Remarkable vasodilation toward the edge of the eyelid or remarkable rubor; 2 • d) Condition of the nictitating membrane • No congestion; 0 • Recognizable vasodilation and tendency of edema; 0.5 • More appreciable vasodilation and rubor of the edge of the eyelid; 1 • Extreme vasodilation and remarkable rubor of the entire nictitating membrane; 2 • e) Secretions • No secretions; 0 • A certain amount more than normal (exclusive of small amount of secretions found at the medial angle of the eye of a normal animal); 1 • Some secretions with a wet eyelid and neighboring fur; 2 • Some secretions with a wet eyelid and a large area of wet fur around the eye; 3 • B) Conditions of the anterior chamber: After the observation of the front of the eye, the inside of the anterior chamber was checked for flares under a slit lamp. • C) Damage to the cornea: After observation of the conditions of the front and anterior chamber of the eye 4 hours after the final application, the cornea was stained with fluorescein, and the remaining dye on the cornea was observed under a slit lamp. […] Further, to comprehensively evaluate damage to the front of the eye, the sum of the scores was calculated as a total score.

[5] = 2 hours, 20 µℓ of 0.1% (w/v) ophthalmic solution
[6] = 4 hours, 20 µℓ of 0.1% (w/v) ophthalmic solution
[7] = 6 hours, 20 µℓ of 0.1% (w/v) ophthalmic solution
[8] = After 1 hr, 0.01% (w/v) ophthalmic solution (pharmaceutical 3), 50 µℓ, average of three subjects
[9] = After 2 hrs, 0.01% (w/v) ophthalmic solution (pharmaceutical 3), 50 µℓ, average of three subjects
[10] = After 4 hrs, 0.01% (w/v) ophthalmic solution (pharmaceutical 3), 50 µℓ, average of three subjects
[11] = After 1 hr, 0.1% (w/v) ophthalmic solution (reference pharmaceutical 1)
[12] = After 2 hrs, 0.1% (w/v) ophthalmic solution (reference pharmaceutical 1)
[13] = After 4 hrs, 0.1% (w/v) ophthalmic solution (reference pharmaceutical 1)

## CCCCCC(F)/C=C/[C@@H]1[C@@H](C/C=C\CCCC(=O)O)[C@@H](O)C[C@H]1O (stereo partly drawn) [15-Fluoro-15-deoxy PGF2α, 15-fluoro-15-deoxy PGF2α]
[1]
  contraction action on smooth muscle in the respiratory system as compared with the naturally occurring PGF2α: 100 fold
  relaxation action on smooth muscle in the respiratory system as compared with the naturally occurring PGF2α: 1000 fold
[2]
  action on the smooth muscle in the digestive and circulatory systems relative to the naturally occurring PGF2α: comparable

## CC(C)OC(=O)CCC/C=C\C[C@@H]1[C@@H](/C=C/C(F)COc2cc(Cl)cc(Cl)c2)[C@H](O)C[C@@H]1O (single isomer, unassigned) [Compound A, 16-(3,5-dichlorophenoxy)-15-deoxy-15-fluoro-17,18,19,20-tetranorprostaglandin F2α isopropyl ester]
[3]; 2 hours, 20 µℓ of 0.01% (w/v) ophthalmic solution
  Change in ocular pressure after application: -0.8 mmHg
[3]; [5]
  Change in ocular pressure after application: -1.0 mmHg
[3]; 4 hours, 20 µℓ of 0.01% (w/v) ophthalmic solution
  Change in ocular pressure after application: -1.8 mmHg
[3]; [6]
  Change in ocular pressure after application: -1.4 mmHg
[3]; 6 hours after application
  lowered the intraocular pressure, times as much as Latanoprost: about 1.5 times
[3]; 6 hours, 20 µℓ of 0.01% (w/v) ophthalmic solution
  Change in ocular pressure after application: -3.0 mmHg
[3]; [7]
  Change in ocular pressure after application: -3.6 mmHg
[4]; 1 hour after application
  scored in total, as much as Latanoprost did: about 1/5
[4]; 2 hours after application
  scored in total, as much as Latanoprost did: 1/2
[4]; 4 hours after application
  scored in total, as much as Latanoprost did: 1/3
[4]; [8]
  Condition of nictitating membrane: 0.2
  Edema of eyelid conjunctiva: 0
  Iridial congestion: 0
  Opacity of the cornea: 0
  Opaque fraction of the cornea: 0
  Rubor of eyelid conjunctiva: 0
  Rubor of supraocular conjunctiva: 0.2
  Secretions: 0
[4]; [9]
  Condition of nictitating membrane: 0.2
  Edema of eyelid conjunctiva: 0
  Iridial congestion: 0
  Opacity of the cornea: 0
  Opaque fraction of the cornea: 0
  Rubor of eyelid conjunctiva: 0.2
  Rubor of supraocular conjunctiva: 0.5
  Secretions: 0
[4]; [10]
  Condition of nictitating membrane: 0
  Edema of eyelid conjunctiva: 0
  Iridial congestion: 0
  Opacity of the cornea: 0
  Opaque fraction of the cornea: 0
  Rubor of eyelid conjunctiva: 0
  Rubor of supraocular conjunctiva: 0.2
  Secretions: 0
[4]; After 1 hr, 0.01% (w/v) ophthalmic solution (pharmaceutical 3), 50 µℓ
  Total score: 0.4
[4]; After 2 hrs, 0.01% (w/v) ophthalmic solution (pharmaceutical 3), 50 µℓ
  Total score: 0.9
[4]; After 4 hrs, 0.01% (w/v) ophthalmic solution (pharmaceutical 3), 50 µℓ
  Total score: 0.2
[4]; when applied to the eye, slight congestion of the conjunctiva was observed
  irritation of the front of the eye: little irritant

## CC(C)OC(=O)CCC/C=C\C[C@@H]1[C@@H](CC[C@@H](O)CCc2ccccc2)[C@H](O)C[C@@H]1O [Latanoprost, 13,14-dihydro-17-phenyl-18,19,20-trinor PGF2α isopropyl ester, reference compound]
[3]; [5]
  Change in ocular pressure after application: -0.6 mmHg
[3]; [6]
  Change in ocular pressure after application: -2.6 mmHg
[3]; [7]
  Change in ocular pressure after application: -2.3 mmHg
[4]; [11]
  Condition of nictitating membrane: 0.3
  Edema of eyelid conjunctiva: 0
  Iridial congestion: 0
  Opacity of the cornea: 0
  Opaque fraction of the cornea: 0
  Rubor of eyelid conjunctiva: 0.5
  Rubor of supraocular conjunctiva: 0.8
  Secretions: 0.3
  Total score: 1.9
[4]; [12]
  Condition of nictitating membrane: 0.3
  Edema of eyelid conjunctiva: 0
  Iridial congestion: 0
  Opacity of the cornea: 0
  Opaque fraction of the cornea: 0
  Rubor of eyelid conjunctiva: 0.5
  Rubor of supraocular conjunctiva: 0.8
  Secretions: 0
  Total score: 1.6
[4]; [13]
  Condition of nictitating membrane: 0.3
  Edema of eyelid conjunctiva: 0
  Iridial congestion: 0
  Opacity of the cornea: 0
  Opaque fraction of the cornea: 0
  Rubor of eyelid conjunctiva: 0
  Rubor of supraocular conjunctiva: 0.3
  Secretions: 0
  Total score: 0.6
